SMILES strings stand for the structures.

Serine/threonine-protein kinase PLK1, sequence (P53350 whole entry): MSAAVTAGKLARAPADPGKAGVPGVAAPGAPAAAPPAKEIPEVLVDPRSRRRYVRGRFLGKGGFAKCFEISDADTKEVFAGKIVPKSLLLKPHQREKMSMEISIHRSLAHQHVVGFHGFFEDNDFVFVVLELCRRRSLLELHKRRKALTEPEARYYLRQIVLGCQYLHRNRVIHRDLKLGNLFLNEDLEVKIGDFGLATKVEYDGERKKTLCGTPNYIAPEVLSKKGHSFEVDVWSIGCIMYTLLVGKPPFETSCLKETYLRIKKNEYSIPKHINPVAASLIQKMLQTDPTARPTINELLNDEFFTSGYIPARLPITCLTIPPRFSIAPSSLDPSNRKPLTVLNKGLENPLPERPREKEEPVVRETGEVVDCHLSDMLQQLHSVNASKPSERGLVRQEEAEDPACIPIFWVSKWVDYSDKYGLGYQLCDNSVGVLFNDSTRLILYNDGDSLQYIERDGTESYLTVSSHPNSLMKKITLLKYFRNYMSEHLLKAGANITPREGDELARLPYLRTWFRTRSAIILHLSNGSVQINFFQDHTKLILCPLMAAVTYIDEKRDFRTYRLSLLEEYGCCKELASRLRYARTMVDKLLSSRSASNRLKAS

This assay concerns the target Serine/threonine-protein kinase PLK1 (Homo sapiens, UniProt P53350).
As usually defined, the IC50 is the concentration that inhibits the measured activity by half. Lower therefore signals higher potency. `CC(Nc1ncc(C#N)c(N2CCc3ccccc3C2)n1)c1ccccc1` (configuration not stated) came in with a 50% inhibitory concentration (IC50) of 750 nM.
On to `CCCN(CC1CC1)c1nc(NCc2ccc3c(c2)OCO3)ncc1C#N`, for which the IC50 was determined as 1600 nM.
As for `N[C@H](COc1cncc(-c2cc3ccncc3s2)c1)Cc1c[nH]c2ccccc12`, the figure is 10000 nM.
The compound `c1csc(CCNc2ncc(-c3nnn[nH]3)c(Nc3ccc4c(c3)OCCO4)n2)c1` came in with an IC50 of 1040 nM.
As for `CCOC(=O)/C(C#N)=c1\s/c(=C/Nc2ccccc2F)c(=O)n1CC`, the figure is 160 nM.
As for `C#CNC(=O)/C(C#N)=c1\s/c(=C/Nc2ccc(OCCN(C)C)cc2)c(=O)n1CC`, the figure is 71 nM; as for `CCn1c(=O)/c(=C\Nc2ccc(OCCN(C)C)cc2)s/c1=C(/C#N)C(=O)NCC(F)F`, 74 nM.
On to `CCOC(=O)/C(C#N)=c1\s/c(=C/Nc2ccc(NC(=O)COC)cc2)c(=O)n1CC`, for which the IC50 was 500 nM.
`CC(Nc1ncc(C#N)c(OCC2CCCCO2)n1)c1ccccc1` (configuration not stated): the IC50 is 1600 nM.
As for `CC(C)(C)c1ccc(Nc2nc(NCc3cccnc3)ncc2-c2nn[nH]n2)cc1`, the figure is 960 nM; as for `O=C1C(C2=C3C(=Nc4ccccc43)/C(=C\c3ccc(O)cc3)C2=O)=C2C(=Nc3ccccc32)/C1=C\c1ccc(O)cc1`, 2000 nM; as for `O=c1c(O)c(-c2ccc(O)c(O)c2)oc2cc(O)cc(O)c12` [QUERCETIN], 64000 nM.
As for `C=CCOC(=O)/C(C#N)=C1\S[C@@H](CNc2ccc(NC(=O)NCCN3CCCC3)cc2)C(=O)N1CC`, the figure is 23 nM.
As for `FC(F)(F)c1ccc(Nc2nc(NCc3cccnc3)ncc2-c2nn[nH]n2)cc1`, the figure is 490 nM.
As to `CCCN(CC1CC1)c1nc(NC(C)c2ccccc2)ncc1C#N` (configuration not stated), the IC50 came out at 550 nM. The IC50 values of the last two compounds are within 1.5-fold of each other.
On to `CC(=O)N(C)c1cccc(Nc2nc(NCCc3cccs3)ncc2-c2nn[nH]n2)c1`, for which the IC50 was 330 nM.
As for `CN1CCN(c2ccc(C(=O)Nc3[nH]nc4c3CN(C(=O)Cc3cccs3)C4)cc2)CC1`, the figure is 530 nM.

The record behind these values is ChEMBL document CHEMBL1144187, “Pharmacophore modeling and virtual screening for designing potential PLK1 inhibitors” (Bioorg Med Chem Lett, 2008).
